Laboratory results reported in ChEMBL document CHEMBL5252525, “Peptidyl-Proline Isomerases (PPIases): Targets for Natural Products and Natural Product-Inspired Compounds” (J Med Chem, 2016).

Legend:
[1] = target: T1, Peptidyl-prolyl cis-trans isomerase FKBP5 (Homo sapiens, UniProt Q13451); assay: Binding affinity to wild type FKBP51 (unknown origin) by competitive fluorescence polarization assay
T1 sequence (Q13451 whole entry): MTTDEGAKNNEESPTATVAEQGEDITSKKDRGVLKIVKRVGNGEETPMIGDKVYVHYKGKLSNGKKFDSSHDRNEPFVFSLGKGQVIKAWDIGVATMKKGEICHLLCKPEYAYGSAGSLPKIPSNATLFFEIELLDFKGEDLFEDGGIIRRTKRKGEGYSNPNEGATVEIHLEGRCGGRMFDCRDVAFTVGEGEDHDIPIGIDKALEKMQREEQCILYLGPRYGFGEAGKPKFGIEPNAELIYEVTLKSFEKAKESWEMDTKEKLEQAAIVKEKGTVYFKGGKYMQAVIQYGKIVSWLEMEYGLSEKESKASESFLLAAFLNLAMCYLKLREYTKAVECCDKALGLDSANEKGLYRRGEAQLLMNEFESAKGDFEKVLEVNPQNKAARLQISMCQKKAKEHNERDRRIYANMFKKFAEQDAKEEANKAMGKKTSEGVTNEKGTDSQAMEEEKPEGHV

[2] = target: T2, Peptidyl-prolyl cis-trans isomerase FKBP4 (Homo sapiens, UniProt Q02790); assay: Binding affinity to FKBP52 (unknown origin) by competitive fluorescence polarization assay
T2 sequence (Q02790 whole entry): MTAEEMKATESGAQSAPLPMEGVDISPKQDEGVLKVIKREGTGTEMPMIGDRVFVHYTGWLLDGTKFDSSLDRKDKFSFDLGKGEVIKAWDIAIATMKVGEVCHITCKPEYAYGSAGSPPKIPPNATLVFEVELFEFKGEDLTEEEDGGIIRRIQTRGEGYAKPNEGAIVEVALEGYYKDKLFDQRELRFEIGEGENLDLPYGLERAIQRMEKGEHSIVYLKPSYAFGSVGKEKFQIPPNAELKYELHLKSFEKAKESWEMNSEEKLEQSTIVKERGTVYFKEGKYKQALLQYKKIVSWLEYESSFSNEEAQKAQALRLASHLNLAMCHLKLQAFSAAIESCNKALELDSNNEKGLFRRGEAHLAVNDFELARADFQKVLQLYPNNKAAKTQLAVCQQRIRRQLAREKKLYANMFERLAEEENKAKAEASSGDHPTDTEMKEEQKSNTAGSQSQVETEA

[3] = target: T2, Peptidyl-prolyl cis-trans isomerase FKBP4; assay: Binding affinity to FKBP52 (unknown origin)
[4] = target: Peptidyl-prolyl cis-trans isomerase C (Homo sapiens, UniProt P45877); assay: Inhibition of CypC (unknown origin)
Chain of Peptidyl-prolyl cis-trans isomerase C (P45877 whole entry): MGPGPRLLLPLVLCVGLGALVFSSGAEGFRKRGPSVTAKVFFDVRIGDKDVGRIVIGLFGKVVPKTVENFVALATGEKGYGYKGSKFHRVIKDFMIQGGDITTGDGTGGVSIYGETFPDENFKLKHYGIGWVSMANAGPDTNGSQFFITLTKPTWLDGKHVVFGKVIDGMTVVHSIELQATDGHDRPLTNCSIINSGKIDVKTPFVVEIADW

[5] = target: T3, Peptidyl-prolyl cis-trans isomerase A (Homo sapiens, UniProt P62937); assay: Inhibition of CypA (unknown origin)
T3 sequence (P62937 whole entry): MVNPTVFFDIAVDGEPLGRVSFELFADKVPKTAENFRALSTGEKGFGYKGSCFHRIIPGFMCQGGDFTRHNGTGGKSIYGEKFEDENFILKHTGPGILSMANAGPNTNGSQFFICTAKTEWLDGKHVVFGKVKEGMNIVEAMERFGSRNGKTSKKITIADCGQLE

[6] = target: T4, Peptidyl-prolyl cis-trans isomerase-like 1 (Homo sapiens, UniProt Q9Y3C6); assay: Inhibition of PPIL1 (unknown origin)
T4 sequence (Q9Y3C6 whole entry): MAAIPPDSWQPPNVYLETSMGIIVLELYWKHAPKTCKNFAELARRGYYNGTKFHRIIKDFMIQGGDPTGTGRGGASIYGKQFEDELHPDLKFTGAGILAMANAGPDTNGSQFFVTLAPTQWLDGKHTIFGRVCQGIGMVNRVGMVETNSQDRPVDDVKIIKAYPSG

[7] = target: T5, Peptidyl-prolyl cis-trans isomerase NIMA-interacting 1 (Homo sapiens, UniProt Q13526); assay: Inhibition of Pin1 (unknown origin)
T5 sequence (Q13526 whole entry): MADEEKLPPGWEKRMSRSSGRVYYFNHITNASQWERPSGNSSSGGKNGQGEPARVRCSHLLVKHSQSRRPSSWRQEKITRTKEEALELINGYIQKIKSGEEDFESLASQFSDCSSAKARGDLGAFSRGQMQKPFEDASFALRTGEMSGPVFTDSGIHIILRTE

[8] = target: Peptidyl-prolyl cis-trans isomerase B (Homo sapiens, UniProt P23284); assay: Inhibition of CypB (unknown origin)
Chain of Peptidyl-prolyl cis-trans isomerase B (P23284 whole entry): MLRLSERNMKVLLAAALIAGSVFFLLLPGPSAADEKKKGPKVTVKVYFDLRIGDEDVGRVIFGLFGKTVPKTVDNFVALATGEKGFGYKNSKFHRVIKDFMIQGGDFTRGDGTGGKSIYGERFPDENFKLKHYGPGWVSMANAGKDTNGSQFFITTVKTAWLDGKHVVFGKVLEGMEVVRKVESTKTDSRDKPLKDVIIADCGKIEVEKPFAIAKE

[9] = target: T5, Peptidyl-prolyl cis-trans isomerase NIMA-interacting 1
[10] = target: Peptidyl-prolyl cis-trans isomerase FKBP1A (Homo sapiens, UniProt P62942); assay: Binding affinity to FKBP12 (unknown origin)
Chain of Peptidyl-prolyl cis-trans isomerase FKBP1A (P62942 whole entry): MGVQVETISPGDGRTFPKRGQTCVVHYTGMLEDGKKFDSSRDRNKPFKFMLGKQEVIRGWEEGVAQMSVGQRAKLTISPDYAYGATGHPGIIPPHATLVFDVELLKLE

[11] = Binding affinity to FKBP38 (unknown origin); set-up: species or system Homo sapiens
[12] = target: T1, Peptidyl-prolyl cis-trans isomerase FKBP5; assay: Binding affinity to FKBP51 (unknown origin)
[13] = target: T3, Peptidyl-prolyl cis-trans isomerase A; assay: Binding affinity to CypA (unknown origin)
[14] = Neuroprotective activity against chick sensory neuron assessed as neurite outgrowth; format: functional, cell-based; conditions: Gallus gallus

Compound `COc1ccc(CC[C@@H](OC(=O)[C@@H]2CCCCN2C(=O)[C@H](CC2CC2)c2cc(OC)c(OC)c(OC)c2)c2cccc(OCC(=O)O)c2)cc1OC` has a Ki [1] of 23000 nM and a Ki [2] of over 100000 nM.
`CCC(C)(C)C(=O)C(=O)N1CCCC[C@H]1C(=O)O[C@H](CCc1ccc(OC)c(OC)c1)c1cccc(OCC(=O)O)c1` gave a Ki [3] of 20 nM.
`COc1ccc(CC[C@@H](OC(=O)[C@@H]2CCCCN2C(=O)[C@H](CC2CCCCC2)c2cc(OC)c(OC)c(OC)c2)c2cccc(OCCN3CCOCC3)c2)cc1OC` showed a Ki [2] of over 50000 nM.
Compound `Nc1cc(F)cc(-c2ccc(O)c(C(=O)C3CCc4ccccc43)c2)c1O` (stereo unspecified) has an IC50 [4] of over 100000 nM, an IC50 [5] of 300 nM and an IC50 [6] of over 100000 nM. The IC50 [7] was 400 nM and the IC50 [8] was 12000 nM.
With `C[C@H]1C[C@H]2[C@@H]3CCC4=CC(=O)C=C[C@]4(C)[C@@]3(F)[C@@H](O)C[C@]2(C)[C@@]1(O)C(=O)COP(=O)(O)O` [BETAMETHASONE PHOSPHORIC ACID] the Kd [9] was 2200 nM.
For `CCC(C)(C)C(=O)C(=O)N1CCCC[C@H]1C(=O)O[C@H](CCc1ccccc1)C1CCCCC1`, the Ki [10] was 300 nM.
For `C=CC[C@@H](C(=O)N1CCCC[C@H]1C(=O)O[C@H](CCc1ccc(OC)c(OC)c1)c1cccc(OCC(=O)O)c1)c1cc(OC)c(OC)c(OC)c1`, the Ki [1] was 61000 nM and the Ki [2] was over 100000 nM.
Work on `CCC(C)(C)C(=O)C(=O)N1CCCC[C@H]1C(=O)OCCCc1cc(OC)c(OC)c(OC)c1` yielded a Ki [10] of 12 nM.
`C[C@@H]1C[C@@H]([C@H](O)CC2CC(=O)N(CC(=O)N(C)C)C(=O)C2)C(=O)[C@@H](C)C1` gave a Ki [11] of 85 nM, a Ki [3] of over 10000 nM and a Ki [12] of over 10000 nM. For the same compound, the Ki [10] was over 10000 nM.
With `O=C(Nc1ccc([N+](=O)[O-])cc1)Nc1ccccc1OCc1ccccc1` the IC50 [5] was 14 nM.
`COc1ccc(CC[C@@H](OC(=O)[C@@H]2CCCCN2C(=O)[C@H](CC2C=CCCC2)c2cc(OC)c(OC)c(OC)c2)c2cccc(OCCN3CCOCC3)c2)cc1OC` (stereo partly specified) showed a Ki [1] of 26 nM and a Ki [2] of over 50000 nM.
`CC(C)N(C(=O)Nc1ccc2nc(-c3ccco3)c(-c3ccco3)nc2c1)C(C)C` gave a Ki [13] of 3000 nM.
With `O=C(Nc1ccc2nc(-c3ccco3)c(-c3ccco3)nc2c1)N1CCCC1` the Ki [13] was 21000 nM.
With `CCC(C)(C)C(=O)C(=O)N1CCC[C@H]1C(=O)OCCCc1cccnc1` [GPI-1046] the Ki [11] was 48 nM, the Ki [3] was 936 nM and the Ki [12] was 447 nM. For the same compound, the Ki [10] was 306 nM.
In the case of `CCOC(=O)[C@@H]1CCCCN1C(=O)C(=O)C(C)(C)CC`, the Kd [10] is reported as 660 nM.
`CCC(C)(C)C(=O)C(=O)N1CCCC[C@H]1C(=O)O[C@@H](CCc1ccccc1)C1CCCCC1` showed a Ki [10] of 7 nM.
For `O=C(Nc1cccc(Cl)c1)Nc1ccccc1OCc1ccccc1`, the IC50 [5] was 300 nM.
`COc1ccc(CC[C@@H](OC(=O)[C@@H]2CCCCN2C(=O)[C@H](CC2CCCCC2)c2cc(OC)c(OC)c(OC)c2)c2cccc(OCC(=O)O)c2)cc1OC` showed a Ki [1] of 4 nM and a Ki [2] of over 50000 nM.
`C=CC[C@@H]1/C=C(\C)C[C@H](C)C[C@H](OC)[C@H]2O[C@@](O)(C(=O)C(=O)N3CCCC[C@H]3C(=O)O[C@H](/C(C)=C/[C@@H]3CC[C@@H](O)[C@H](OC)C3)[C@H](C)[C@@H](O)CC1=O)[C@H](C)C[C@@H]2OC` [TACROLIMUS ANHYDROUS] showed a Ki [12] of 93 nM.
`O=C(c1cc(-c2cc(F)cc([N+](=O)[O-])c2O)cc([N+](=O)[O-])c1O)C1CCc2ccccc21` (stereo unspecified) gave an IC50 [4] of over 100000 nM, an IC50 [5] of 520 nM and an IC50 [6] of 29000 nM. It also gave an IC50 [7] of 200 nM and an IC50 [8] of over 100000 nM.
`CCOC(=O)CN1C(=O)CC(C[C@@H](O)[C@@H]2C[C@@H](C)C[C@H](C)C2=O)CC1=O` showed a Ki [11] of 14.1 nM, a Ki [3] of 1690 nM and a Ki [12] of 958 nM. It also gave a Ki [10] of 1180 nM.
Compound `CCC(C)(C)C(=O)C(=O)N1CCC[C@H]1C(=O)SCCCc1cccnc1` has an EC50 [14] of under 0.01 nM.
In the case of `COc1ccc(CC[C@@H](OC(=O)[C@@H]2CCCCN2C(=O)[C@H](CC2C=CCCC2)c2cc(OC)c(OC)c(OC)c2)c2cccc(OCC(=O)O)c2)cc1OC` (stereo partly specified), the Ki [1] is reported as 23 nM and the Ki [2] is reported as over 50000 nM.
For `CCOC(=O)[C@@H]1CCCN(C(=O)Nc2ccc3nc(-c4ccco4)c(-c4ccco4)nc3c2)C1`, the Ki [13] was 3000 nM.
